In the Kinase Knowledgebase extract (Sharma et al. 2016):

The compounds below were run against PIK3CG (human) (UniProt P48736) (assay: Assessment of PIK3CG Kinase Activity).
Sequence of PIK3CG (human) (P48736 whole entry, looked up): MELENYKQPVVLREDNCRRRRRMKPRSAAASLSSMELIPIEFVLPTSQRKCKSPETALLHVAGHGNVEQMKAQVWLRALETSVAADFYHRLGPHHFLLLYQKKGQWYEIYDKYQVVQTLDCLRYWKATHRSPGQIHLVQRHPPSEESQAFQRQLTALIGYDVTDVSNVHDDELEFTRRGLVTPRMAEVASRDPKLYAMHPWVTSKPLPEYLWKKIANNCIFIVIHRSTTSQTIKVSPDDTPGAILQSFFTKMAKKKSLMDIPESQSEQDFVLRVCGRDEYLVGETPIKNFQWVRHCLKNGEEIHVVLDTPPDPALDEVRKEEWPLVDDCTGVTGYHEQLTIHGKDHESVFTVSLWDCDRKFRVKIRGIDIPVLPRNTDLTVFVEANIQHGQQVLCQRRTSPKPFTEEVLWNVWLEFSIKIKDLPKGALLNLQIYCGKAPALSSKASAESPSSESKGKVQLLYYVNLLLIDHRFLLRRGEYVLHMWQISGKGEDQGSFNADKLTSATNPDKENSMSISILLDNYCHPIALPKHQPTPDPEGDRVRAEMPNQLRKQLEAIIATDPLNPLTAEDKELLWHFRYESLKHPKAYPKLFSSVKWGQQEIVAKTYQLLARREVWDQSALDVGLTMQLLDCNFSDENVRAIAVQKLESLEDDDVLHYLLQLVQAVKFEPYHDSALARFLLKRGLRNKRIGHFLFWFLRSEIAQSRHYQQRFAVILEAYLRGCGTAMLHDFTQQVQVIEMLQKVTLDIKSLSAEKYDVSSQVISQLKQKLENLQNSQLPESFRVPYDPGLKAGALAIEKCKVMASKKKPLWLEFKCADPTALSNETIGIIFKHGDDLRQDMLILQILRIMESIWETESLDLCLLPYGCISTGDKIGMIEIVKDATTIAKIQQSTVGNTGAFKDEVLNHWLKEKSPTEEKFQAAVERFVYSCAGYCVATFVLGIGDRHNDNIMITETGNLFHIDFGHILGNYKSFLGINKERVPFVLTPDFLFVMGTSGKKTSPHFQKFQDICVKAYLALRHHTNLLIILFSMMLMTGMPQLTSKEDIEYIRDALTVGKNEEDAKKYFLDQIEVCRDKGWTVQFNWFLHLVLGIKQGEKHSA

Q: For COc1cc2c(Oc3ccc(C4CCN(C(=O)C(C)(C)NC(=O)OC(C)(C)C)CC4)cc3)c(C(=O)Nc3nn[nH]n3)sc2cc1C, which IC50 is on record?
A: 20 nM

Q: COc1cc2c(OC[C@H](C)c3ccccc3)c(C(=O)Nc3nn[nH]n3)sc2cc1C was tested. Which IC50 did it give?
A: 56 nM

Q: How did the IC50 turn out when COc1cc2c(Oc3ccc(C(O)c4ccccc4)cc3)c(C(=O)Nc3nn[nH]n3)sc2cc1C (configuration not stated) was run?
A: 8 nM

Q: With COc1cc2c(Oc3ccc(C4CCN(C(C)=O)CC4)cc3)c(C(=O)Nc3nn[nH]n3)sc2cc1C as the compound, how does the IC50 read?
A: 14 nM

Q: Which IC50 does the source give for COc1cc2sc(C(=O)Nc3nnn[nH]3)c(Oc3ccc(CCCSc4ccc(Cl)cc4)cc3)c2cc1C here?
A: 2610 nM

Q: How did the IC50 turn out when COc1cc2sc(C(=O)Nc3nnn[nH]3)c(OCc3ccc4ccccc4c3)c2cc1OC was run?
A: 210 nM

Q: COc1cc2c(Oc3ccc(C(C4CCCCC4)N4CCCCC4)cc3)c(C(=O)Nc3nn[nH]n3)sc2cc1C (configuration not stated) was tested. Which IC50 did it give?
A: 715 nM

Q: Which IC50 does the source give for COc1cc2c(Oc3ccc(C4CCNCC4)cc3)c(C(=O)Nc3nn[nH]n3)sc2cc1C here?
A: 365 nM

Q: For COc1cc2c(Oc3ccc(C4CCN(C(=O)C(C)C)CC4)cc3)c(C(=O)Nc3nn[nH]n3)sc2cc1C, which IC50 is on record?
A: 11 nM

Q: For COc1cc2c(Oc3ccc(C4CCSCC4)cc3)c(C(=O)Nc3nn[nH]n3)sc2cc1C, which IC50 is on record?
A: 8 nM

Q: With COc1cc2sc(C(=O)Nc3nnn[nH]3)c(Oc3ccc(CCCSC4CCCCC4)cc3)c2cc1C as the compound, how does the IC50 read?
A: 240 nM

Q: COc1cc2c(Oc3ccc(C4CCCC(O)C4)cc3)c(C(=O)Nc3nn[nH]n3)sc2cc1C (configuration not stated) was tested. Which IC50 did it give?
A: 8 nM

Q: For COc1cc2sc(C(=O)Nc3nn[nH]n3)c(Oc3cccc(C(=N)N)c3)c2cc1C, which IC50 is on record?
A: 388 nM

Q: How did the IC50 turn out when COc1cc2c(Oc3ccc(C4CC(C)(C)CC(C)(C)C4)cc3)c(C(=O)Nc3nn[nH]n3)sc2cc1C was run?
A: 325 nM

Q: For COc1cc2c(Oc3ccc(C4CCOCC4)cc3)c(C(=O)Nc3nn[nH]n3)sc2cc1C, which IC50 is on record?
A: 9 nM

Q: For COc1cc2c(Oc3ccc(C(=O)c4ccccc4)cc3)c(C(=O)Nc3nn[nH]n3)sc2cc1C, which IC50 is on record?
A: 27 nM

Q: COc1cc2c(Oc3ccc(C(C)(C)C)c(C(C)(C)C)c3)c(C(=O)Nc3nn[nH]n3)sc2cc1C was tested. Which IC50 did it give?
A: 2340 nM
